# Reference: ChEMBL document CHEMBL3580608, “Optimizing glucokinase activator binding kinetics to lower in vivo hypoglycemia risk” (Medchemcomm, 2014)
# Species on record: Homo sapiens
# Assay: Toxicity in type 2 diabetes patient receiving basal insulin therapy assessed as incidence of hypoglycemia at 10 to 40 mg, TID (reference value: 8%)
# Format: organism-based
# Details: in vivo
# 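For T1/2 in this document: surface plasmon resonance readout of dissociation half-life from biotin-labelled recombinant human glucokinase produced in Escherichia coli.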
row,SMILES,Activity [%]
1,CCS(=O)(=O)c1ccc(Oc2cc(O[C@@H](C)CO)cc(C(=O)Nc3ccn(C)n3)c2)cn1 [MK-0941 FREE BASE],14

# Molecular target: T1, Hexokinase-4 (Homo sapiens) (UniProt P35557)
# T1 sequence (whole entry): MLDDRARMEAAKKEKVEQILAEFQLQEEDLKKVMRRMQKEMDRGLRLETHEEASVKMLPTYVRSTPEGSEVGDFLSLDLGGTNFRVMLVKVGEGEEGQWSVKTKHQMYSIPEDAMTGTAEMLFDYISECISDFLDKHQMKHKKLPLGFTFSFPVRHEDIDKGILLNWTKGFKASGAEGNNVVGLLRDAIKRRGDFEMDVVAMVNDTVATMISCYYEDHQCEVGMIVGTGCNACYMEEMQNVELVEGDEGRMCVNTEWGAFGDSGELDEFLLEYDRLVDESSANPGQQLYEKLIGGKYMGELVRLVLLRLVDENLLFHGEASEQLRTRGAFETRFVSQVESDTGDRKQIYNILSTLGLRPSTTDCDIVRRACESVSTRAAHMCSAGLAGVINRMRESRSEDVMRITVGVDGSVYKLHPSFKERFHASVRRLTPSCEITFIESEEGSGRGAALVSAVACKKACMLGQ
# Assay: not given
# Details: not given
row,SMILES,T1/2 [min]
1,CN(C)C(=O)c1cnc(Oc2cc(C(=O)Nc3ccn(C)n3)cc3c2CC(C)(CO)O3)cn1 (racemic),1.91
2,Cn1ccc(NC(=O)c2cc(Oc3ccc(C(=O)N4CCC4)c(F)c3)c3c(c2)OC(C)(C)C3)n1,1.65
3,Cc1cnc(NC(=O)c2cc(Oc3ccc(C(=O)N(C)C)nc3)c3c(c2)OC(C)(CO)C3)cn1 (configuration not stated),1.76
4,COC[C@H](C)Oc1cc(Oc2cnc(C(=O)N3CCC3)cn2)cc(C(=O)Nc2cnc(C)cn2)c1 [AZD-1656],2.06
5,CC(C)Oc1cc(Oc2cnc(C(=O)N3CCC3)cn2)cc(C(=O)Nc2cc[nH]n2)c1,1.16
6,CCS(=O)(=O)c1ccc(Oc2cc(O[C@@H](C)CO)cc(C(=O)Nc3ccn(C)n3)c2)cn1 [MK-0941 FREE BASE],16.3
7,Cc1cnc(NC(=O)c2cc(Oc3cnc(C(=O)N(C)C)c(F)c3)c3cn(C)nc3c2)cn1,0.14
8,"Cc1ccc(NC(=O)c2cc(Oc3ccc(C(=O)N4CCC4)c(F)c3)c3c(c2)OC(C)(CO)C3)nc1 (single isomer, unassigned; (+))",0.352
9,C[C@@H](CO)Oc1cc(Oc2ccc(C(=O)N3CCC3)cc2)cc(C(=O)Nc2ccn(C)n2)c1,7.16

# System: Rattus norvegicus
# Assay: Toxicity in Wistar rat assessed as reduction in fasting plasma glucose level at 3 to 100 mg/kg, po administered for 60 mins measured over first hour prior to OGTT method
# Details: in vivo, 1 h
row,SMILES,Activity [mg/dL]
1,CN(C)C(=O)c1cnc(Oc2cc(C(=O)Nc3ccn(C)n3)cc3c2CC(C)(CO)O3)cn1 (racemic),< 60
2,Cn1ccc(NC(=O)c2cc(Oc3ccc(C(=O)N4CCC4)c(F)c3)c3c(c2)OC(C)(C)C3)n1,< 60
3,Cc1cnc(NC(=O)c2cc(Oc3ccc(C(=O)N(C)C)nc3)c3c(c2)OC(C)(CO)C3)cn1 (configuration not stated),< 60
4,COC[C@H](C)Oc1cc(Oc2cnc(C(=O)N3CCC3)cn2)cc(C(=O)Nc2cnc(C)cn2)c1 [AZD-1656],< 60
5,CC(C)Oc1cc(Oc2cnc(C(=O)N3CCC3)cn2)cc(C(=O)Nc2cc[nH]n2)c1,< 60
6,CCS(=O)(=O)c1ccc(Oc2cc(O[C@@H](C)CO)cc(C(=O)Nc3ccn(C)n3)c2)cn1 [MK-0941 FREE BASE],< 60
7,Cc1cnc(NC(=O)c2cc(Oc3cnc(C(=O)N(C)C)c(F)c3)c3cn(C)nc3c2)cn1,> 60
8,C[C@@H](CO)Oc1cc(Oc2ccc(C(=O)N3CCC3)cc2)cc(C(=O)Nc2ccn(C)n2)c1,< 60

# System: not listed separately
# Assay: in vivo
# Details: Wistar, rat, plasma, po
row,SMILES,selectivity ratio
1,CN(C)C(=O)c1cnc(Oc2cc(C(=O)Nc3ccn(C)n3)cc3c2CC(C)(CO)O3)cn1 (racemic),< 5
2,Cn1ccc(NC(=O)c2cc(Oc3ccc(C(=O)N4CCC4)c(F)c3)c3c(c2)OC(C)(C)C3)n1,< 5
3,Cc1cnc(NC(=O)c2cc(Oc3ccc(C(=O)N(C)C)nc3)c3c(c2)OC(C)(CO)C3)cn1 (configuration not stated),< 5
4,COC[C@H](C)Oc1cc(Oc2cnc(C(=O)N3CCC3)cn2)cc(C(=O)Nc2cnc(C)cn2)c1 [AZD-1656],< 5
5,CC(C)Oc1cc(Oc2cnc(C(=O)N3CCC3)cn2)cc(C(=O)Nc2cc[nH]n2)c1,< 5
6,CCS(=O)(=O)c1ccc(Oc2cc(O[C@@H](C)CO)cc(C(=O)Nc3ccn(C)n3)c2)cn1 [MK-0941 FREE BASE],< 5
7,Cc1cnc(NC(=O)c2cc(Oc3cnc(C(=O)N(C)C)c(F)c3)c3cn(C)nc3c2)cn1,> 5
8,C[C@@H](CO)Oc1cc(Oc2ccc(C(=O)N3CCC3)cc2)cc(C(=O)Nc2ccn(C)n2)c1,< 5

# Molecular target: T2, Hexokinase-4 (Homo sapiens, UniProt P35557)
# T2 sequence (P35557 whole entry): T1 sequence (whole entry)
# Assay: Binding affinity to biotinylated human recombinant glucokinase expressed in Escherichia coli assessed as dissociation […] constant by SPR method
# Details: not given
row,SMILES,Kd [nM]
1,CN(C)C(=O)c1cnc(Oc2cc(C(=O)Nc3ccn(C)n3)cc3c2CC(C)(CO)O3)cn1 (racemic),86.4
2,Cn1ccc(NC(=O)c2cc(Oc3ccc(C(=O)N4CCC4)c(F)c3)c3c(c2)OC(C)(C)C3)n1,89.9
3,Cc1cnc(NC(=O)c2cc(Oc3ccc(C(=O)N(C)C)nc3)c3c(c2)OC(C)(CO)C3)cn1 (configuration not stated),17.5
4,COC[C@H](C)Oc1cc(Oc2cnc(C(=O)N3CCC3)cn2)cc(C(=O)Nc2cnc(C)cn2)c1 [AZD-1656],10.8
5,CC(C)Oc1cc(Oc2cnc(C(=O)N3CCC3)cn2)cc(C(=O)Nc2cc[nH]n2)c1,21.4
6,CCS(=O)(=O)c1ccc(Oc2cc(O[C@@H](C)CO)cc(C(=O)Nc3ccn(C)n3)c2)cn1 [MK-0941 FREE BASE],2.93
7,Cc1cnc(NC(=O)c2cc(Oc3cnc(C(=O)N(C)C)c(F)c3)c3cn(C)nc3c2)cn1,427
8,C[C@@H](CO)Oc1cc(Oc2ccc(C(=O)N3CCC3)cc2)cc(C(=O)Nc2ccn(C)n2)c1,2.16

# System: Rattus norvegicus
# Assay: Antidiabetic activity in Wistar rat assessed as reduction of post-prandial glucose AUC excursion at 3 to 100 mg/kg, po administered for 60 mins followed by glucose challenge measured up to 120 mins by OGTT method
# Design: scale not given: the % may be the effect or the level left
# Details: not given
row,SMILES,Activity [%]
1,CN(C)C(=O)c1cnc(Oc2cc(C(=O)Nc3ccn(C)n3)cc3c2CC(C)(CO)O3)cn1 (racemic),>20
2,Cn1ccc(NC(=O)c2cc(Oc3ccc(C(=O)N4CCC4)c(F)c3)c3c(c2)OC(C)(C)C3)n1,>20
3,Cc1cnc(NC(=O)c2cc(Oc3ccc(C(=O)N(C)C)nc3)c3c(c2)OC(C)(CO)C3)cn1 (configuration not stated),>20
4,COC[C@H](C)Oc1cc(Oc2cnc(C(=O)N3CCC3)cn2)cc(C(=O)Nc2cnc(C)cn2)c1 [AZD-1656],>20
5,CC(C)Oc1cc(Oc2cnc(C(=O)N3CCC3)cn2)cc(C(=O)Nc2cc[nH]n2)c1,>20
6,CCS(=O)(=O)c1ccc(Oc2cc(O[C@@H](C)CO)cc(C(=O)Nc3ccn(C)n3)c2)cn1 [MK-0941 FREE BASE],>20
7,Cc1cnc(NC(=O)c2cc(Oc3cnc(C(=O)N(C)C)c(F)c3)c3cn(C)nc3c2)cn1,<20
8,C[C@@H](CO)Oc1cc(Oc2ccc(C(=O)N3CCC3)cc2)cc(C(=O)Nc2ccn(C)n2)c1,>20

# Molecular target: T3, Hexokinase-4 (Rattus norvegicus) (UniProt P17712)
# T3 sequence (whole entry): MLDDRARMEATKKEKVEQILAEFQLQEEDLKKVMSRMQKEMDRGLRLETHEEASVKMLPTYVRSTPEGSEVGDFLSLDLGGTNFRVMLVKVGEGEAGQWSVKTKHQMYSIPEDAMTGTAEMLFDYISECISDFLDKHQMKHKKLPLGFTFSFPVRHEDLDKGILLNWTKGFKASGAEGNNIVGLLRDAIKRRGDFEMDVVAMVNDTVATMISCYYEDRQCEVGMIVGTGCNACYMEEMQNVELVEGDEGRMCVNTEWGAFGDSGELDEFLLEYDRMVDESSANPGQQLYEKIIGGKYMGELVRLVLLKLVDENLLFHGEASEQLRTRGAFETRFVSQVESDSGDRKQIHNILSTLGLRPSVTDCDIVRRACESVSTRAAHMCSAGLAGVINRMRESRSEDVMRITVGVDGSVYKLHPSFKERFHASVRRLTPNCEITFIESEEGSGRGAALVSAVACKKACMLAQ
# Assay: Binding affinity to biotinylated rat recombinant glucokinase expressed in Escherichia coli assessed as off rate constant for activator-enzyme binding kinetics by SPR method
# Details: not given
row,SMILES,K [×10⁻³ /s]
1,Cn1ccc(NC(=O)c2cc(Oc3ccc(C(=O)N4CCC4)c(F)c3)c3c(c2)OC(C)(C)C3)n1,6.8
2,Cc1cnc(NC(=O)c2cc(Oc3ccc(C(=O)N(C)C)nc3)c3c(c2)OC(C)(CO)C3)cn1 (configuration not stated),9.4

# Molecular target: T2, Hexokinase-4
# Assay: not given
# Details: not given
row,SMILES,EC50 [nM]
1,CN(C)C(=O)c1cnc(Oc2cc(C(=O)Nc3ccn(C)n3)cc3c2CC(C)(CO)O3)cn1 (racemic),121
2,Cn1ccc(NC(=O)c2cc(Oc3ccc(C(=O)N4CCC4)c(F)c3)c3c(c2)OC(C)(C)C3)n1,26
3,Cc1cnc(NC(=O)c2cc(Oc3ccc(C(=O)N(C)C)nc3)c3c(c2)OC(C)(CO)C3)cn1 (configuration not stated),24
4,COC[C@H](C)Oc1cc(Oc2cnc(C(=O)N3CCC3)cn2)cc(C(=O)Nc2cnc(C)cn2)c1 [AZD-1656],28
5,CC(C)Oc1cc(Oc2cnc(C(=O)N3CCC3)cn2)cc(C(=O)Nc2cc[nH]n2)c1,52
6,CCS(=O)(=O)c1ccc(Oc2cc(O[C@@H](C)CO)cc(C(=O)Nc3ccn(C)n3)c2)cn1 [MK-0941 FREE BASE],9.5
7,Cc1cnc(NC(=O)c2cc(Oc3cnc(C(=O)N(C)C)c(F)c3)c3cn(C)nc3c2)cn1,391
8,C[C@@H](CO)Oc1cc(Oc2ccc(C(=O)N3CCC3)cc2)cc(C(=O)Nc2ccn(C)n2)c1,16.2
